Consider four compounds from patent US11364242B2, “Treatment agents for inhibiting HIV and cancer in HIV infected patients” (UNIVERSITY OF MARYLAND, BALTIMORE, priority 2015, dated 2022).

One data set has as its system HIV-1 BaL. The data set can be described thus: Antiretroviral potency with and without INK128 in PBLs infected with HIV BaL. The class given is cell-based. The following applies: Human immunodeficiency virus 1, BAL, PBMC, PBMCs, two donors. How it is done:
PBLs were separated from buffy coats by density centrifugation over Ficoll-Hypaque (Sigma™), and activated by culture in the presence of 1 μg/mL anti-human CD3 antibody (clone x35, Fisher Scientific™) and 2 μg/mL anti-human CD28 antibody (Clone CD28.6, eBioscience™) for 3 days. Activated cells were infected by incubation with virus at a multiplicity of infection (MOI) of 0.001 for 2 hours. Infected cells were washed three times with PBS and cultured in 5% CO2 at 37° C., in RPMI/10% FBS supplemented with 100 units/mL IL-2 (Roche™) and antiviral drugs, in 96-well flat-bottom plates at a density of […] PBLs per 200 μL. Following 3 d of culture, half of the medium was replaced with fresh medium containing IL-2 and antiviral drugs. On day 7, viral replication was measured by p24 ELISA (Coulter) in culture supernatants and cell viability was measured by MTT assays.
Available ARTs target the HIV lifecycle steps of entry, reverse transcription, integration, and maturation. […] In addition, by targeting virus transcription, INK128 could have favorable interactions with inhibitors of reverse transcription (RTIs), integration (Hs), and protease (PIs). […] We conducted these assays in activated PBLs infected with R5 HIV BaL and treated with various dilutions of Maraviroc (CCR5 antagonist), Efavirenz (RTI), Raltegravir (II), and Indinavir (PI). INK128 was used at low concentrations (<EC50) to better detect changes in ART potency (Table 7).
Prism software. Data are from 2 experiments, each with a different donor.

In the next data set the test system is HIV-1. The experiment in a line: HIV production in PHA activated PBMCs, p24 ELISA day 7. The following applies: p24 day 7.
Where [1] appears, read: +3 nM INK128, read-out: EC50 (geometric mean).
The mark [2] stands for this setting: +10 nM INK128, read-out: EC50 (geometric mean).
Where [3] appears, read: No INK128, read-out: EC50 (geometric mean).

Like-named read-outs stand apart in the source and are kept apart here.

One may read the EC50 as the midpoint of the concentration-response curve. For the compound `CC(C)(C)NC(=O)[C@@H]1CN(Cc2cccnc2)CCN1C[C@@H](O)C[C@@H](Cc1ccccc1)C(=O)N[C@H]1c2ccccc2C[C@H]1O` [IND], the EC50 with HIV-1 BaL (setting [1]) was 3140 pM; in the data set with HIV-1 BaL (setting [2]) it was 3000 pM; with HIV-1 BaL (setting [3]) it was 3840 pM.
Take `Nc1ccc(-c2ccc3ncc4ccc(=O)n(-c5cccc(C(F)(F)F)c5)c4c3c2)cn1` [Torin-2, 9-(6-Amino-3-pyridinyl)-1-[3-(trifluoromethyl)phenyl]-benzo[h]-1,6-naphthyridin-2(1H)-one]: the cell toxicity entry in the data set with PBMCs is “absence of cell toxicity”. In addition, the “HIV inhibition in vitro” value with HIV-1 is recorded as “inhibits HIV in vitro”.
As to `O=C1Nc2ccc(Cl)cc2[C@@](C#CC2CC2)(C(F)(F)F)O1` [EFV], the concentration giving a half-maximal response (EC50) with HIV-1 BaL (setting [1]) came out at 510 pM; in the data set on HIV-1 BaL (setting [2]) it was 510 pM; in the data set on HIV-1 BaL (setting [3]) it was 520 pM.
As to `Cc1nnc(C(=O)NC(C)(C)c2nc(C(=O)NCc3ccc(F)cc3)c(O)c(=O)n2C)o1` [RAL], the half-maximal effective concentration (EC50) in the data set with HIV-1 BaL (read-out: EC50 (geometric mean), +3 nM INK128) amounted to 810 pM; in the data set with HIV-1 BaL (read-out: EC50 (geometric mean), +10 nM INK128), 570 pM; with HIV-1 BaL (read-out: EC50 (geometric mean), No INK128) it was 650 pM.
